22 compounds from patent US9187454B2, “Inhibitors of kinases and cancer stem cells, and methods of preparation and use thereof” (Boston Biomedical, Inc., priority 2013, dated 2015) can be followed below.

Holding throughout (format): cell-based
In one assay the test system is ACHN. The assay is described as follows: Bulk cancer cell viability, CellTiter-Glo, ACHN. The note with it: viability 72 hours after drug treatment. The method, then:
(§1) Cancer cells were plated at 5000 cells per well in black-walled 96 well plates in 100 uL per well of complete media (DMEM, 10% FBS, 1% penicillin/streptomycin). Cells were treated with each of the compounds 24 hours after plating with a dose curve of the indicated compounds in triplicate wells. Cells were harvested 72 hours after drug treatment and viability was determined using CellTiter-Glo assay (Promega) as directed by the manufacturer.
For orientation: In ATP-based viability assays light output follows the ATP content of the culture.

In another assay the test system is FaDu. As to the kind of experiment: Bulk cancer cell viability, CellTiter-Glo, FaDu. The note with it: viability 72 hours after drug treatment. The procedure:
as §1

The test system of another assay is FaDu CSC. As to the kind of experiment: Cancer stem cell sphere culture viability, CellTiter-Glo, FaDu CSC. Conditions: CSC cultures, viability 72 hours after drug treatment. The method, then: (§2) Cancer Stem Cell (CSC) cultures were initiated from heterogenous cancer cell lines. Briefly, cancer cell cultures were trypsonized and collected in centrifuge tubes. Cells were then pelleted by centrifugation, media removed, and cells resuspended in phosphate buffered saline (PBS). Cells were then pelleted again, and the process repeated for a total of three PBS washes. Cells were subsequently resuspended in CSC media (DMEMF-12, 1×B27 supplement (Life Technologies), 0.4% BSA, 10 ng/ml EGF, 10 ng/ml FGF). Following resuspension, cells were passed through a 40 uM cell strainer to obtain a single cell suspension. Cells were then plated in 100 mm dishes coated with 0.5% Agar to prevent cell attachment. Cells were then allowed to grow for 5-7 days to allow CSC sphere formation.
(§3) CSC spheres that were a minimum of passage 2 were dissociated with Accutase and filtered through a 40 uM cell strainer before counting to remove any cell clumps. CSCs were then plated at 1000 cells per well in black-walled 96 well plates that have been coated in 0.5% Agar in 100 uL per well of CSC media. CSCs were then allowed to grow for 72 hours. CSC cultures were then treated with a dose curve of the indicated compounds in triplicate wells. CSC cultures were harvested 72 hours after drug treatment and viability determined using CellTiter-Glo assay (Promega) as directed by the manufacturer.

For a further assay, the system named is A549. As to the kind of experiment: Bulk cancer cell viability, CellTiter-Glo, A549. The note with it: Homo sapiens, viability 72 hours after drug treatment. The method, then:
as §1

Another assay relates to A549 CSC. The assay is described as follows: Cancer stem cell sphere culture viability, CellTiter-Glo, A549 CSC. Conditions: Homo sapiens, CSC cultures, viability 72 hours after drug treatment. The method, then:
as §2, §3

Usually IC50 stands for the concentration that gives 50% inhibition. A lower IC50 goes with inhibition by little substance. For the compound `CCN(CC)CCNC(=O)c1c(C)[nH]c(/C=C2\C(=O)Nc3ccc(-c4ncc(-c5ccccc5)o4)cc32)c1C` [Compound 247], half-maximal inhibition in the assay with ACHN (Homo sapiens, ACHN, 72 h) (IC50) was put at 63.3 µM.
Turning to `CCN(CC)CCNC(=O)c1c(C)[nH]c(/C=C2\C(=O)Nc3cc(-c4csc(-c5ccccc5)n4)ccc32)c1C` [Compound 233], the IC50 came out at 5.02 µM in the assay on FaDu (Homo sapiens, FaDu, 72 h) and 0.66 µM in the assay with FaDu CSC (Homo sapiens, FaDu, 72 h).
In the assay with FaDu (Homo sapiens, FaDu, 72 h), `O=C1Nc2ccc(-c3csc(-c4ccncc4)n3)cc2/C1=C/c1cc2ccccc2[nH]1` [Compound 352] returned an IC50 of 67.8 µM.
As for `CCN(CC)CCNC(=O)c1c(C)[nH]c(/C=C2\C(=O)Nc3ccc(-c4csc(-c5ccccc5)n4)nc32)c1C` [Compound 261], the 50% inhibitory concentration (IC50) in the assay on FaDu (Homo sapiens, FaDu, 72 h) came to 1.51 µM; with A549 it was 1.12 µM; in the assay with ACHN (Homo sapiens, ACHN, 72 h) it was 1.75 µM; with FaDu CSC (Homo sapiens, FaDu, 72 h), 0.65 µM.
Regarding `Cc1[nH]c(/C=C2\C(=O)Nc3c2cccc3-c2csc(-c3ccccc3)n2)c(C)c1C(=O)N1CCN(C)CC1` [Compound 236], the IC50 was determined as 11.3 µM in the assay on FaDu (Homo sapiens, FaDu, 72 h) and 2.53 µM with FaDu CSC (Homo sapiens, FaDu, 72 h).
With `CCN(CC)CCNC(=O)c1c(C)[nH]c(/C=C2\C(=O)Nc3ccc(-c4nnc(-c5ccccc5)s4)cc32)c1C` [Compound 303], the values for the IC50 with FaDu, in the assay on ACHN and in the assay on FaDu CSC were 7.98 µM, 5.67 µM and 12.6 µM, respectively.
In turn, `CCN(CC)CCNC(=O)c1c(C)[nH]c(/C=C2\C(=O)Nc3cc(-c4ccc(-c5ccccc5)s4)ccc32)c1C` [Compound 244] gave an IC50 with FaDu (Homo sapiens, FaDu, 72 h) of 87.6 µM.
As to `CCN(CC)CCNC(=O)c1c(C)[nH]c(/C=C2\C(=O)Nc3ccc(-c4cnn(C5CCOCC5)c4)cc32)c1C` [Compound 273], the IC50 with FaDu (Homo sapiens, FaDu, 72 h) was 6.15 µM; in the assay with A549, 27.3 µM; in the assay on FaDu CSC (Homo sapiens, FaDu, 72 h) it was 9.05 µM.
Consider `CCN(CC)CCNC(=O)c1c(C)[nH]c(/C=C2\C(=O)Nc3ccc(-c4nnc(-c5ccccc5)s4)cc32)c1C` [Compound 250], for which the 50% inhibitory concentration (IC50) with FaDu (Homo sapiens, FaDu, 72 h) was 14.1 µM; in the assay on ACHN, 83.9 µM.
For `CCN(CC)CCNC(=O)c1c(C)[nH]c(/C=C2\C(=O)Nc3c2cccc3-c2csc(-c3ccccc3)n2)c1C` [Compound 235], the concentration for half-maximal inhibition (IC50) amounted to 5.3 µM with FaDu (Homo sapiens, FaDu, 72 h) and 1.4 µM in the assay on FaDu CSC (Homo sapiens, FaDu, 72 h).
For `Cc1cc(C(=O)NCCO)[nH]c1/C=C1\C(=O)Nc2ccc(-c3csc(-c4ccccc4)n3)cc21` [Compound 370], the concentration for half-maximal inhibition (IC50) in the assay with FaDu (Homo sapiens, FaDu, 72 h) came to 56 µM.
On to `CCN(CC)CCNC(=O)c1c(C)[nH]c(/C=C2\C(=O)Nc3ccc(-c4ccc(-c5cccnc5)s4)cc32)c1C` [Compound 298], for which the IC50 in the assay on FaDu (Homo sapiens, FaDu, 72 h) was 14.3 µM; in the assay on FaDu CSC (Homo sapiens, FaDu, 72 h), 40.8 µM.
On to `CCN(CC)CCNC(=O)c1c(C)[nH]c(/C=C2\C(=O)Nc3ccc(C4CCN(C5CCN(C(C)=O)CC5)CC4)cc32)c1C` [Compound 272], for which the concentration for half-maximal inhibition (IC50) in the assay with FaDu (Homo sapiens, FaDu, 72 h) came out at 22.3 µM.
As to `Cc1[nH]c(/C=C2\C(=O)Nc3ccc(-c4csc(-c5ccccc5)n4)nc32)c(C)c1C(=O)NCCN1CCCC1` [Compound 262], the half-maximal inhibitory concentration (IC50) with FaDu (Homo sapiens, FaDu, 72 h) stood at 3.62 µM; in the assay with A549, 3.15 µM; in the assay with ACHN (Homo sapiens, ACHN, 72 h) it was 2.83 µM; with FaDu CSC (Homo sapiens, FaDu, 72 h), 1.1 µM; with A549 CSC, 2.01 µM.
For the compound `Cc1[nH]c(/C=C2\C(=O)Nc3cc(-c4csc(-c5ccccc5)n4)ccc32)c(C)c1C(=O)N1CCOCC1` [Compound 268], in the assay with FaDu (Homo sapiens, FaDu, 72 h), the IC50 worked out at 64.8 µM.
Take `CCN(CC)CCNC(=O)c1c(C)[nH]c(/C=C2\C(=O)Nc3ccc(-c4cn(-c5ccccc5)nc4C)cc32)c1C` [Compound 287]: the IC50 with FaDu came out at 5.79 µM; in the assay with FaDu CSC, 1.31 µM.
Consider `CCN(CC)CCNC(=O)c1c(C)[nH]c(/C=C2\C(=O)Nc3ccc(C4=CS/C(=C\c5ccccc5)N4C)cc32)c1C` [Compound 283], for which the IC50 in the assay with FaDu (Homo sapiens, FaDu, 72 h) amounted to 5.35 µM; in the assay with FaDu CSC (Homo sapiens, FaDu, 72 h), 2.17 µM.
In turn, `O=C1Nc2ccc(-c3csc(-c4ccccc4)n3)cc2/C1=C/c1ccc(C(=O)NCCN2CCOCC2)c(=O)[nH]1` [Compound 265] returned a concentration for half-maximal inhibition (IC50) in the assay on FaDu (Homo sapiens, FaDu, 72 h) of 62.7 µM.
Consider `CCN(CC)CCNC(=O)c1ccc(/C=C2\C(=O)Nc3ccc(-c4csc(-c5ccccc5)n4)cc32)[nH]c1=O` [Compound 263], for which the half-inhibitory concentration (IC50) came out at 2.41 µM in the assay with FaDu (Homo sapiens, FaDu, 72 h) and 8.16 µM in the assay on FaDu CSC (Homo sapiens, FaDu, 72 h).
Take `CN1CCN(C(=O)c2ccc(/C=C3\C(=O)Nc4ccc(-c5csc(-c6ccccc6)n5)cc43)[nH]c2=O)CC1` [Compound 264]: the 50% inhibitory concentration (IC50) in the assay with FaDu (Homo sapiens, FaDu, 72 h) was 99.8 µM.
In turn, `Cc1[nH]c(/C=C2\C(=O)Nc3cc(-c4csc(-c5ccccc5)n4)ccc32)c(C)c1C(=O)N1CCN(C)CC1` [Compound 234] gave an IC50 in the assay with FaDu (Homo sapiens, FaDu, 72 h) of 6.29 µM.
`Cc1[nH]c(/C=C2\C(=O)Nc3ccc(-c4csc(-c5ccncc5)n4)cc32)c(C)c1CCC(=O)O` [Compound 348] gave a concentration for half-maximal inhibition (IC50) in the assay with FaDu (Homo sapiens, FaDu, 72 h) of 64.4 µM.
